According to patent US12435128B2, “Method for predicting therapeutic effect of LSD1 inhibitor based on expression of INSM1” (TAIHO PHARMACEUTICAL CO., LTD., priority 2017, dated 2025):
Where a name gives a salt, the structure may show the parent alone. Read-outs that look alike come from different tables or passages of the source.

Tests used:
Format in all cases: cell-based
[1] = test system: HEL cells (human acute myelocytic leukemia cell lines); assay: Cell-growth inhibition test: HEL cells; settings: read-out: IC50 (nM), Cell-Growth Inhibition Test: HEL Cells
Protocol: (§1) Under the following conditions, an in vitro cell-growth inhibition test was performed with respect to HEL cells (human acute myelocytic leukemia cell lines), NCI-H1417 cells (human small-cell lung cancer cell lines), and NCI-H146 cells (human small-cell lung cancer cell lines).
(§2) The cells with the Example compound or with dimethylsulfoxide alone were cultured at 37° C. in a 5% carbon-dioxide-containing incubator for 5 days (HEL cells) or 10 days (NCI-H1417 cells and NCI-H146 cells). After culture, the plate was allowed to stand at room temperature for 30 minutes, and 100 μL of the supernatant was removed from each well to leave 100 μL of the cell culture solution. To each well containing the remaining 100 μL of the cell culture solution, the same amount of CellTiter-Glo 2.0 Assay (Promega, Cat #: G9242) was added. The microplate was shaken with a plate mixer for 1 minute and then allowed to stand in a dark place for 10 minutes. Thereafter, the luminescence intensity of viable cells in each well was measured using a microplate reader (PerkinElmer, EnSpire). […] Cell growth rate(%)=T/C×100 • T: The luminescence intensity in a well to which the test compound was added (count per second) • C: The luminescence intensity in a well to which dimethylsulfoxide alone was added (count per second)

[2] = test system: NCI-H1417 cells (human small-cell lung cancer cell lines); assay: Cell-growth inhibition test: NCI-H1417 cells; settings: read-out: IC50 (nM), Cell-Growth Inhibition Test: NCI-H1417 Cells
Protocol: as §1, §2

[3] = test system: NCI-H146 cells (human small-cell lung cancer cell lines); assay: Cell-growth inhibition test: NCI-H146 cells; settings: NCI-H146 cells; read-out: IC50 (nM), Cell-Growth Inhibition Test: NCI-H146 Cells
Protocol: as §1, §2

Row | IC50 ([1]; HEL cells) [nM] | IC50 ([2]; NCI-H1417 cells) [nM] | Compound | IC50 [1] [nM] | IC50 [2] [nM] | IC50 [3] [nM]
1 |  |  | Cc1c(F)c(-c2ccc(C(=O)N3[C@@H]4CC[C@H]3[C@@H](N)C4)cc2-c2ccc(C#N)c(F)c2)cc2nnn(CC(C)(C)O)c12 (single isomer, unassigned) [Example 228] | 0.68 | 0.3 | 0.51
2 |  |  | CN(C)C(=O)c1cn(C)c2cc(F)c(-c3ccc(C(=O)N4[C@@H]5CC[C@H]4[C@@H](N)C5)cc3-c3ccc(C#N)c(F)c3)cc12 (single isomer, unassigned) [Example 238] | 26.1 | 10.8 | 17.7
3 |  |  | CC(C)(O)Cn1nnc2cc(-c3ccc(C(=O)N4C5CCC4CC(N)C5)cc3-c3ccc(C#N)c(F)c3)c(F)c(C(F)F)c21 (stereo not drawn) [Example 250, 5′-((3-endo)-3-amino-8-azabicyclo[3.2.1]octane-8-carbonyl)-2′-(7-(difluoromethyl)-6-fluoro-1-(2-hydroxy-2-methylpropyl)-1H-benzo[d][1,2,3]triazol-5-yl)-3-fluoro-[1,1′-biphenyl]-4-carbonitrile] | 2.36 | 1.2 | 9.3
4 |  |  | Cc1noc2cc(-c3ccc(C(=O)N4[C@@H]5CC[C@H]4[C@@H](N)C5)cc3-c3ccc(C#N)c(F)c3)c(F)cc12 (single isomer, unassigned) [Example 202] | 0.24 | 0.62 | 0.73
5 |  |  | CC(C)(O)Cn1nnc2cc(-c3ccc(C(=O)N4[C@@H]5CC[C@H]4[C@@H](N)C5)cc3-c3ccc(C#N)c(F)c3)c(F)c(C#N)c21 (single isomer, unassigned) [Example 247] | 3.02 | 1.4 | 3.84
6 |  |  | CNC(=O)c1cn(C)c2cc(F)c(-c3ccc(C(=O)N4[C@@H]5CC[C@H]4[C@@H](N)C5)cc3-c3ccc(C#N)c(F)c3)cc12 (single isomer, unassigned) [Example 237] | 28.5 | 6.63 | 5.14
7 | 1.99 | 3.57 | Cn1ccc2cc(-c3ccc(C(=O)N4C5CCC4CC(N)C5)cc3-c3ccc(C#N)c(F)c3)c(F)cc21 (stereo not drawn) [Example 123, 4-[5-[(3-endo)-3-amino-8-azabicyclo[3.2.1]octane-8-carbonyl]-2-(6-fluoro-1-methyl-indol-5-yl)phenyl]-2-fluoro-benzonitrile] |  |  | 1.39
8 |  |  | CC(C)(O)Cn1ccc2cc(-c3ccc(C(=O)N4C5CCC4CC(N)C5)cc3-c3ccc(C#N)c(F)c3)c(F)c(F)c21 (stereo not drawn) [Example 183, 5′-((3-endo)-3-amino-8-azabicyclo[3.2.1]octane-8-carbonyl)-2′-(6,7-difluoro-1-(2-hydroxy-2-methylpropyl)-1H-indol-5-yl)-3-fluoro-[1,1′-biphenyl]-4-carbonitrile] | 0.54 | 1.01 | 0.25
9 |  |  | N#Cc1ccc(-c2cc(C(=O)N3[C@@H]4CC[C@H]3[C@@H](N)C4)ccc2-c2cc3nnn(CC4(O)CCC4)c3c(F)c2F)cc1F (single isomer, unassigned) [Example 254] | 0.2 | 0.18 | 0.36
10 |  |  | Cc1ccc(-c2ccc(CN3[C@@H]4CC[C@H]3[C@@H](N)C4)cc2-c2ccc(C#N)c(F)c2)c(F)c1 (single isomer, unassigned) [Example 283] | 0.79 | 2.1 | 11.1
11 |  |  | CCC(O)(CC)Cn1nnc2cc(-c3ccc(C(=O)N4[C@@H]5CC[C@H]4[C@@H](N)C5)cc3-c3ccc(C#N)c(F)c3)c(F)c(Cl)c21 (single isomer, unassigned) [Example 218] | 0.22 | 0.21 | 0.33
12 |  |  | CC(C)(O)Cn1ncc2cc(-c3ccc(CN4[C@@H]5CC[C@H]4[C@@H](N)C5)cc3-c3ccc(C#N)c(F)c3)c(F)cc21 (single isomer, unassigned) [Example 287, dihydrochloride] |  | 0.1 | 0.2
